This note sets out measurements from publication PMC7488503 (Acta Pharmaceutica Sinica. B, 2020).

In one data set the test system is HUVECs. As to the kind of experiment: Transwell invasion assay. Type of data set: cell-based, human. The conditions noted are these: driven by 50 ng/mL hVEGF-165; dose-dependent; 0.5 μmol/L P < 0.01; 5.0 and 50.0 μmol/L P < 0.001.
Data set [1] concerns phosphorylation of VEGFR2 and ERK. Nature of the data set: Western blot, VEGF/VEGFR2/ERK signalling in HUVECs. Type of data set: cell-based, human. Conditions: 5.0 μmol/L; induced by 50 ng/mL hVEGF 165 in HUVECs; P < 0.01.
Another data set deals with MST4 (Homo sapiens, UniProt Q9P289). As to the kind of experiment: Z′-LYTE kinase inhibition assay.
Sequence of MST4 (Q9P289 whole entry): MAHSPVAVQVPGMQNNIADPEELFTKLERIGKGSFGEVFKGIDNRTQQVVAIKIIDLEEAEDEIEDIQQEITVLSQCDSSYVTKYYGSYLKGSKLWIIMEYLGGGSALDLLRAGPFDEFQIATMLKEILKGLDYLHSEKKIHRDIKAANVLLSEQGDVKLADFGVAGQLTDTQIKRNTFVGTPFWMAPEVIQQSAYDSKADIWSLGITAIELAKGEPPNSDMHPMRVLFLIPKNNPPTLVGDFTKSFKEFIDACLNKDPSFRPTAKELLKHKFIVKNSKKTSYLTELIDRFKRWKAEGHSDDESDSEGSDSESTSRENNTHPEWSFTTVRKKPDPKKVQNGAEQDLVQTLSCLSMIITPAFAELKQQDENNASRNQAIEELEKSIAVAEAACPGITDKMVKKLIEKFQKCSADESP
In the next data set the target is PKA (Homo sapiens, UniProt P17612). As to the kind of experiment: Z′-LYTE kinase inhibition assay.
Data set [2] in a line: H&E staining of vital organs of treated mice. Type of data set: in vivo, nude mice. Conditions: 100 and 200 mg/kg, p.o., QD × 3 weeks.
A further data set deals with TAOK2 (Homo sapiens, UniProt Q9UL54). As to the kind of experiment: Z′-LYTE kinase inhibition assay.
Sequence of TAOK2 (Q9UL54 whole entry): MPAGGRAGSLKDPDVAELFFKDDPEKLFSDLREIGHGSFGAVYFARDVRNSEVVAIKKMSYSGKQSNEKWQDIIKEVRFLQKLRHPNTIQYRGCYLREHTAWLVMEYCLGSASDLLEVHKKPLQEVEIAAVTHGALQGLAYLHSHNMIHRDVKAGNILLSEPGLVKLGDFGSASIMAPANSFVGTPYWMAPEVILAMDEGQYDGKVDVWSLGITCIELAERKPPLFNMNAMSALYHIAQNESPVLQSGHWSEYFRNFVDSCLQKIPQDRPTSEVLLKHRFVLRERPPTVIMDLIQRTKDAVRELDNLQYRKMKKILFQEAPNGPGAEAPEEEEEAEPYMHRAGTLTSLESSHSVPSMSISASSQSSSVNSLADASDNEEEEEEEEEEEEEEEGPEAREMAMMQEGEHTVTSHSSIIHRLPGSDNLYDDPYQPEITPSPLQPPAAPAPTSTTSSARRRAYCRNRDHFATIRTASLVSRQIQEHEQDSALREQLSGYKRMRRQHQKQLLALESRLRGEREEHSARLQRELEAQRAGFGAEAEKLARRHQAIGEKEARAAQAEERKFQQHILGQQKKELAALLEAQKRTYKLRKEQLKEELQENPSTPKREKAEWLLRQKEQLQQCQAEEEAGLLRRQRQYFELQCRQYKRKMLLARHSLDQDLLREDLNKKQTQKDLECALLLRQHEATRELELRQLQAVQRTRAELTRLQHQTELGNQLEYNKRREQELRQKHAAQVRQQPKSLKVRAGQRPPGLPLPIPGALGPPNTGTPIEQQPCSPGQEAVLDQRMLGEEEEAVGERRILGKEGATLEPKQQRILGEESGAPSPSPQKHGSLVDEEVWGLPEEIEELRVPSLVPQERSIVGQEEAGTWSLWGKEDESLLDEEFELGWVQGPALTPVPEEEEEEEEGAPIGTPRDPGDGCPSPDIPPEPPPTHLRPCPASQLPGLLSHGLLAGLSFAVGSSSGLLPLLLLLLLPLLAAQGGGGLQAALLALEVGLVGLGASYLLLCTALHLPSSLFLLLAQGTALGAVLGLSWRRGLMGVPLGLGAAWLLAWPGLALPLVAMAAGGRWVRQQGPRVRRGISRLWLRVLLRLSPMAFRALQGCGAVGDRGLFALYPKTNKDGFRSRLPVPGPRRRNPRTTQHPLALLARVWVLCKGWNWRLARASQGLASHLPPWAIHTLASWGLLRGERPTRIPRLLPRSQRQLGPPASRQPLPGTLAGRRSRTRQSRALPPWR
The target in a further data set is FGFR2 (Homo sapiens, UniProt P21802). As to the kind of experiment: Z′-LYTE kinase inhibition assay.
Sequence of FGFR2 (P21802 22-821): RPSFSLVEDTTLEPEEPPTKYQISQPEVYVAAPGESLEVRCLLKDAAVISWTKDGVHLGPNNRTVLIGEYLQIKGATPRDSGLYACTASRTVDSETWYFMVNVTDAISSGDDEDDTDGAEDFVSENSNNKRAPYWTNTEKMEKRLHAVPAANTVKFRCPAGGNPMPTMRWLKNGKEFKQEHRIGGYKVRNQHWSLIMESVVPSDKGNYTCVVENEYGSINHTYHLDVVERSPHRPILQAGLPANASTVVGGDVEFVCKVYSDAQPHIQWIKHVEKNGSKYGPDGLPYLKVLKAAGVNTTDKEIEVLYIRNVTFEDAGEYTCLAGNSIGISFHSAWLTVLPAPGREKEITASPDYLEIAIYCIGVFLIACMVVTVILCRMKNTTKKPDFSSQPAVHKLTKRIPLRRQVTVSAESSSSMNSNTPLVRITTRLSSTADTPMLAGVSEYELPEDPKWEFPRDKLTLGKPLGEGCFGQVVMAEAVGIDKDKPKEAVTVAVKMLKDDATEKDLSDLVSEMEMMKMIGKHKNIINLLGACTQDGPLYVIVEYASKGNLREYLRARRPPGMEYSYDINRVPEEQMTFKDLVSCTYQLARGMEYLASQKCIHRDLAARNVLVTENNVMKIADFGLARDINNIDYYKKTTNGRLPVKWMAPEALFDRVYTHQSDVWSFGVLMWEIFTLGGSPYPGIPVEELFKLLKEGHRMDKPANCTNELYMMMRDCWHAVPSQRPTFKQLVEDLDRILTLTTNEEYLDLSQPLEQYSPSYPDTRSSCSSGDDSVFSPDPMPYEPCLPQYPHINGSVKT
In the next data set the target is EphA2 (Homo sapiens, UniProt P29317). Nature of the data set: Z′-LYTE kinase inhibition assay.
Sequence of EphA2 (P29317 24-976): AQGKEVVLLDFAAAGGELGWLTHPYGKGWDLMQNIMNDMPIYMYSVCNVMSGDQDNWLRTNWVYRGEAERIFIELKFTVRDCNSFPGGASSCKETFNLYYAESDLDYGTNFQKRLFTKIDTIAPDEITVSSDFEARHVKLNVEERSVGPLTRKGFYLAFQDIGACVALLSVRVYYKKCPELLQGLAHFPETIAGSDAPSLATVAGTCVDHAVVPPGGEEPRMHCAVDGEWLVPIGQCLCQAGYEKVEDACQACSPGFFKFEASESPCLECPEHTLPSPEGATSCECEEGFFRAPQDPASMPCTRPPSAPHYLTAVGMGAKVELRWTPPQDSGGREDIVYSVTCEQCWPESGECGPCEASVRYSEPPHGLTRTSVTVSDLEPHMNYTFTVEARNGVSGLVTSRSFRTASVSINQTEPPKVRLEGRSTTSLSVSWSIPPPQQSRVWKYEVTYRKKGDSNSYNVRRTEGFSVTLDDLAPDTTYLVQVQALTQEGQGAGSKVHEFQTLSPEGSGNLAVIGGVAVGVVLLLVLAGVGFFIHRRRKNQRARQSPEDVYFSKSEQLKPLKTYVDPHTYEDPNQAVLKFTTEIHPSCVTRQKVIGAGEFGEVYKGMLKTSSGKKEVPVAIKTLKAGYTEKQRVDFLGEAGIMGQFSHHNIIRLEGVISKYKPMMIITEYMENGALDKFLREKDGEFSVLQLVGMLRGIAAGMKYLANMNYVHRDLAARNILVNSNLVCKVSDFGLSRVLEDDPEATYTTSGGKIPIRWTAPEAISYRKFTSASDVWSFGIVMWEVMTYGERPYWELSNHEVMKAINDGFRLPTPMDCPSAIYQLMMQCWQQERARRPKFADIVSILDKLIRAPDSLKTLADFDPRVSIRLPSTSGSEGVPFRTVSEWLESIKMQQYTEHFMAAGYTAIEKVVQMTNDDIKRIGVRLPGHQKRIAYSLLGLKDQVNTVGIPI
Another data set relates to HBVPs. Nature of the data set: PDGF-BB-induced HBVPs proliferation. The class given is cell-based. The conditions noted are these: Homo sapiens, 48 h, read-out: IC50 HBVPs.
The test system of data set [3] is patient-derived tumor (LI-03-0020) xenograft. Nature of the data set: Liver cancer patient-derived tumor xenograft. The class given is in vivo, Balb/c nude mice.
The subject of data set [4] is phosphorylation of FGFR1‒4 and ERK. As to the kind of experiment: Western blot, FGF/FGFRs/ERK signalling in HUVECs. Type of data set: cell-based, human. The conditions noted are these: 5.0 μmol/L; induced by 50 ng/mL bFGF in HUVECs; P < 0.01.
The mark [5] stands for this setting: liver cancer PDX model, 200 mg/kg oral QD, Day 21.

Where only a bound is given, the exact number is not on record here.

As for `COc1cc2nccc(Oc3ccc(NC(=S)NC4CC4)c(Cl)c3F)c2cc1C(N)=O` [WXFL-152, 4-(3-Chloro-4-(3-cyclopropylthioureido)-2-fluorophenoxy)-7-methoxyquinoline-6-carboxamide], in the data set on HUVECs, the “invasion of HUVECs” value was “significantly inhibited”. Also, the “phosphorylation of VEGFR2 and ERK” value in data set [1] is “significantly suppressed”. The IC50 at MST4 was more than 10000 nM; on PKA, more than 10000 nM; on TAOK2 it was more than 10000 nM; on FGFR2, 15.5 nM; against EphA2, more than 3330 nM; in the data set on HBVPs it was 1940 nM. Also, in [2], the “pathologic changes in heart, liver, spleen, lung and kidney (H&E)” value was “No significant pathologic changes”. Further, the “area of CD31 (tumor micro-vessel density, IHC)” value in data set [3] (liver PDX model, 200 mg/kg, mean ± SEM, n = 3, control 0.30 ± 0.10) is listed as 0.19 ± 0.06. The molecule also returned a T/C in data set [3] (setting [5]) of 35%. In addition, the TGI in data set [3] (setting [5]) came to 76%. Moreover, the “Tumor volume at Day 21” value in data set [3] (liver cancer PDX model, 200 mg/kg oral QD, mean ± SEM) came to 334 ± 69 mm^3. For the same molecule, the “phosphorylation of FGFR1‒4 and ERK” value in [4] is on record as “significantly inhibited”.
